Measurements published in patent publication US6156774A, “Beta-thiopropionyl-amino acid derivatives and their use as beta-lactamase inhibitors” (SmithKline Beecham P.L.C., priority 1996, dated 2000).
Where two headings read alike, the source gives them in different places.

What was measured:
[1] = test system: Bacteroides fragillis 262 strain, which produces CfiA metallo-β-lactamase; test: Antibacterial activity (MIC) in combination with meropenem; assay type: cell-based
Text: Antibacterial activity of compounds of the invention in combination with the carbapenem antibiotic, meropenem, against the Bacteroides fragillis 262 strain, which produces CfiA metallo-β-lactamase:
[MIC=minimum inhibitory concentration (μg/ml)]

[2] = molecular target: B. fragilis CfiA metallo-β-lactamase (Bacteroides fragilis, UniProt P25910); test: I50 screen, nitrocefin reporter substrate; assay type: biochemical; conditions: 25 mM PIPES pH 7, 37° C., nitrocefin 91 μM, 5 minute preincubation, Zn2+ 100 μM; read-out: I50 against B. fragilis CfiA metallo-β-lactamase
Experimental: The inhibitory activity of the compounds of the invention was measured in 25 mM PIPES pH 7 buffer at 10 concentrations (1000, 333, 111, 37, 12.3, 4.1, 1.4, 0.46, 0.15 and 0.05 μM) at 37° C. using nitrocefin (91 μM final concentration) as the reporter substrate. The assays were performed with a 5 minute preincubation of enzyme and inhibitor and were conducted in the presence of added zinc sulphate (Zn^2+ 100 μM, final concentration). the methodology is described in detail in the following references: Payne et al (1991), J. Antimicrob. Chemother., 28:255; Payne et al (1994), Antimicrob. Agents and Chemother., 38:767.

[3] = read-out: MIC of compound alone

Chain of B. fragilis CfiA metallo-β-lactamase (P25910 19-249): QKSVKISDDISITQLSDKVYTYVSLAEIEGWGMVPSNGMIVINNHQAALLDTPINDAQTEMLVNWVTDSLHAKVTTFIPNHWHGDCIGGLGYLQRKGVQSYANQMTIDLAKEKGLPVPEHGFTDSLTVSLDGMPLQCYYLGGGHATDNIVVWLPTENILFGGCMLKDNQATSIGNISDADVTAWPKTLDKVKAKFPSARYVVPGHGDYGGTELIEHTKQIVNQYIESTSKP

| IC50 [2] [µM] | Compound | MIC [1, 3] [mg/L] | MIC ([1]; read-out: MIC of meropenem alone) [mg/L] |
| --- | --- | --- | --- |
| < 1 | O=C(N[C@@H](C(=O)O)c1ccc(OCc2cccs2)cc1)C(CS)CCc1ccccc1 (single isomer, unassigned) [Example 21, N-(2'-mercaptomethyl-4'-phenylbutanoyl)-p-(2"-thienylmethoxy)-D-phenylglycine] | – | – |
| < 1 | O=C(N[C@@H](C(=O)O)c1ccc(OCc2ccccc2)cc1)C(CS)CCc1ccccc1 (single isomer, unassigned) [Example 19, N-(2'-mercaptomethyl-4'-phenylbutanoyl)-p-benzyloxy-D-phenylglycine] | – | – |
| < 1 | O=C(N[C@@H](C(=O)O)c1ccc(OCc2ccccn2)cc1)C(CS)CCc1ccccc1 (stereo partly drawn) [Example 56, N-(2'-RS-mercaptomethyl-4'-phenylbutanoyl)-p-(2-pyridylmethoxy)-D-phenylglycine] | – | – |
| < 1 | C[n+]1cccc(COc2ccc([C@@H](NC(=O)C(CS)CCc3ccccc3)C(=O)[O-])cc2)c1 (stereo partly drawn) [Example 67, N-(2'-RS-mercaptomethyl-4'-phenylbutanoyl)-p-(N-methyl-3-pyridiniummethoxy)-D-phenylglycine] | – | – |
| < 1 | O=C(N[C@@H](C(=O)O)c1ccc(OCc2ccncc2)cc1)C(CS)CCc1ccccc1 (stereo partly drawn) [Example 55, N-(2'-RS-mercaptomethyl-4'-phenylbutanoyl)-p-(4-pyridylmethoxy)-D-phenylglycine] | – | – |
| < 1 | CN(C)c1ccc(CCOc2ccc([C@@H](NC(=O)C(CS)CCc3ccccc3)C(=O)O)cc2)cc1 (single isomer, unassigned) [Example 66, N-(2'-mercaptomethyl-4'-phenylbutanoyl)-p-(p-dimethylamino)-phenethyloxy-D-phenylglycine] | – | – |
| < 1 | CN(C)c1ccc(COc2ccc([C@@H](NC(=O)C(CS)CCc3ccccc3)C(=O)O)cc2)cc1 (single isomer, unassigned) [Example 48, N-(2'-mercaptomethyl-4'-phenylbutanoyl)-p-(p-dimethylamino)-benzyloxy-D-phenylglycine] | – | – |
| < 1 | O=C(N[C@@H](C(=O)O)c1ccc(OCc2ccc([N+](=O)[O-])cc2)cc1)C(CS)CCc1ccccc1 (single isomer, unassigned) [Example 53, N-(2'-mercaptomethyl-4'-phenylbutanoyl)-p-(p-nitro)-benzyloxy-D-phenylglycine] | – | – |
| < 1 | O=C(O)c1cccc(COc2ccc([C@@H](NC(=O)C(CS)CCc3ccccc3)C(=O)O)cc2)c1 (single isomer, unassigned) [Example 50, N-(2'-mercaptomethyl-4'-phenylbutanoyl)-p-(m-carboxy)-benzyloxy-D-phenylglycine] | – | – |

The next lines start with the compound.

| Compound | IC50 [2] [µM] | MIC [1, 3] [mg/L] | MIC ([1]; read-out: MIC of meropenem alone) [mg/L] |
| --- | --- | --- | --- |
| O=C(NC(C(=O)O)c1cccc(Oc2ccccc2)c1)C(CS)CCc1ccccc1 (single isomer, unassigned) [Example 4, N-(2'-mercaptomethyl-4'-phenylbutanoyl)-m-phenoxy-phenylglycine] | < 1 | > 256 | – |
| O=C(NC(C(=O)O)c1ccc(Cc2ccccc2)s1)C(CS)CCc1ccccc1 (centres unmarked) [Example 24, 2-[(5-Benzyl)thien-2-yl]-N-[2-(mercaptomethyl)-4-phenylbutyryl]glycine] | – | > 256 | – |
| O=C(NC(C(=O)O)c1ccc(CC2CCOC2)s1)C(CS)CCc1ccccc1 (centres unmarked) [Example 26, 2-[5-(Tetrahydrofuran-3-ylmethyl)thien-2-yl]-N-[2-(mercaptomethyl)-4-phenylbutyryl]glycine] | – | > 256 | – |
| O=C(NC(C(=O)O)c1ccc(Cc2ccccc2)s1)C(CS)CCc1ccccc1 (racemic) [34 (more polar isomer), 2-[(5-Benzyl)thien-2-yl]-N-[2-(mercaptomethyl)-4-phenylbutyryl]glycine] | < 1 | – | – |
| O=C(N[C@@H](C(=O)O)c1ccc(OCc2ccc(OCc3ccccc3)cc2)cc1)C(CS)CCc1ccccc1 (single isomer, unassigned) [Example 69, N-(2'-mercaptomethyl-4'-phenylbutanoyl)-p-(p-benzyloxy)-benzyloxy-D-phenylglycine] | < 1 | – | – |
| O=C(NC(C(=O)O)c1cccc(Oc2ccccc2)c1)C(CS)CCc1ccccc1 (single isomer, unassigned) [Example 3, N-(2'-mercaptomethyl-4'-phenylbutanoyl)-m-phenoxy-phenylglycine] | < 1 | – | – |
| C[C@@H](O)[C@H]1C(=O)N2C(C(=O)O)=C(S[C@@H]3CN[C@H](C(=O)N(C)C)C3)[C@H](C)[C@H]12 [meropenem, reference compound] | – | – | > 128 |
